Each structure is given as a SMILES string.

For this assay, the system named is dog STING (dSTING). Kind of assay: Dog differential scanning fluorimetry (DSF) assay, thermal shift of dog STING protein. Particulars: DSF (dDSF); 100 μM compound, 3 μM dog STING protein; Tm with ligand minus Tm of protein alone. Format: binding. From the text:
The protein used for the biophysical experiments was a recombinant dog STING protein comprising its cytosolic cGAMP binding ectodomain. A codon optimized DNA sequence (for expression in Escherichia coli) encoding amino acid residues 149 to 375 of dog STING was synthesized by GeneArt (Regensburg, Germany) and inserted into a pET17b E. coli expression vector. The protein construct encodes an N-terminal 8×His-tag followed by tobacco etch virus protease (TEV) cleavage site and the above STING gene sequence. The resulting protein sequence for the used dog STING protein (SEQ ID No. 1) is listed below:
For expression of the above recombinant dog STING, the construct was transformed into E. coli BL21 DE3 strain and grown in shake flasks in LB-medium at 15° C. Expression was induced by addition of isopropyl β-D-1-thiogalactopyranoside to a final concentration of 1 mM and cultures shaken overnight. Cell pellets were centrifuged and stored at −70° C. until further use. Protein was purified by cell thawing in lysis buffer (20 mM TRIS-HCl, pH 8, 500 mM NaCl, 1 mM DTT, 0.5 mg/ml lysozyme, Complete Protease Inhibitor (Roche) and DNase (Roche)), followed by metal affinity purification using Ni-NTA resins and elution buffer consisting of 20 mM TRIS-HCl, pH 8, 500 mM NaCl, 1 mM DTT, 300 mM imidazole. Cleavage of the His-Tag using TEV-protease took place during dialysis in size exclusion buffer (20 mM TRIS-HCl, pH 8, 100 mM NaCl, 1 mM DTT) over night. To further purify the target protein a reverse Nickel affinity column was used and the flow through was applied to a size exclusion chromatography. The peak fraction was collected and concentrated to 5 mg/mL.
Dye fluorescence is quenched in aqueous environment and increases upon association of the dye with the hydrophobic parts of the unfolding protein. […] The inflection point of the curve represents the “melting” temperature of the protein (Tm) which is calculated numerically using the Boltzmann equation.
The thermal stability of the dog STING protein was measured in assay buffer containing 20 mM Tris, 150 mM NaCl at pH7.5. The assay uses 384-Well qPCR Plates (Catalog #781358, BRAND), Microseal® ‘B’ Adhesive Seals for PCR Plates (Catalog #MSB-1001, BIO-RAD) and was run on a CFX384 Real-Time System (Bio-Rad). A DMSO stock solution of SYPRO orange (SIGMA 55692-500UL) was prepared. Compound stock solutions (10 mM in DMSO) were diluted 1:2 in DMSO to an intermediate compound concentration of 5 mM and then further diluted 1:40 in assay buffer resulting in a compound concentration of 125 μM and 2.5% DMSO. Fluorescent dye stock solution (5000×SYPRO Orange) was then mixed with target protein and buffer to a concentration of 15 μM Protein and 25×SYPRO Orange. 2 μl of this protein-dye-mixture was added to 8 μl compound solution. Final volume was 10 μL. 3-6 well positions were used as negative control (protein with 2% DMSO). The plates were prepared for duplicate measurement and centrifuged for 2 min at 1000 g. In the measurement, 160 cycles of 0.5° C. were used (temperature ramp 15 s/cycle, 15° C. to 95° C.).
Final Assay concentrations for compound characterization were 100 μM compound, 3 μM target protein, 5×SYPRO Orange, and 2% DMSO in 10 μl. All dispensing steps were performed using a HamiltonStar pipetting robot (Hamilton).
Dissociation curves were processed in Bio-Rad CFX Manager. Peak type was set to “negative”. Compound codes for screen were assigned in the plate layout.
Two replicates of TM measurements were averaged, and the standard deviation was calculated. In cases of SD>1.5° C. the measurement was repeated.
The melting point (Tm) obtained for STING protein alone was subtracted from T obtained for protein incubated with ligand to generate ΔTm values.
For orientation: DSF heats the sample and reads unfolding from a dye or from intrinsic fluorescence.

In the case of `Cc1cccc2c(-c3c(F)cc(F)c4nn(C)cc34)nn(-c3ccc(N4CC5CCC4CC5C(=O)O)nc3)c12` (single isomer, unassigned) [Example 48-2], the “Delta TM” value came to 24.6 °C.

On to `CC(=O)N1CC2CCC1CN2c1ccc(-n2nc(-c3c(F)cc(F)c4nn(C)cc34)c3cccc(C)c32)cn1` (stereo not drawn) [Example 52, 1-[5-(5-{5″,7″-difluoro-2″,7-dimethyl-1H,2″H-[3,4″-biindazol]-1-yl}pyridin-2-yl)-2,5-diazabicyclo [2.2.2]octan-2-yl]ethan-1-one], for which the “Delta TM” value came out at 25.8 °C.

On to `Cc1cccc2c(-c3cc(F)cc4nn(C)cc34)nn(-c3ccc(N4CC5CCC4CC5C(=O)O)nc3)c12` (stereo not drawn) [Example 39, 2-(5-{6″-fluoro-2″,7-dimethyl-1H,2″H-[3,4″-biindazol]-1-yl}pyridin-2-yl)-2-azabicyclo [2.2.2]octane-5-carboxylic acid], for which the “Delta TM” value was −0.3 °C.

As for `CC(=O)N1CC2CCC1CN2c1ccc(-n2nc(-c3c(F)ccc4nn(C)cc34)c3cccc(C)c32)cn1` (stereo not drawn) [Example 32], the “Delta TM” value was determined as 31.0 °C.

For `CC(=O)N1CCN(c2ccc(-n3nc(-c4ccc(F)c5nn(C)c(F)c45)c4cccc(C)c43)cn2)CC1` [Example 57, 1-[4-(5-{3″,7″-difluoro-2″,7-dimethyl-1H,2″H-[3,4″-biindazol]-1-yl}pyridin-2-yl)piperazin-1-yl]ethan-1-one], the “Delta TM” value was found to be 27.5 °C.

As for `Cc1cccc2c(-c3cccc4nn(C)c(F)c34)nn(-c3ccc(N4C[C@@H]5C[C@H]4C[C@H]5C(=O)O)nc3)c12` (racemic) [Example 19, 2-(5-{3″-fluoro-2″,7-dimethyl-1H,2″H-[3,4″-biindazol]-1-yl}pyridin-2-yl)-2-azabicyclo[2.2.1]heptane-5-carboxylic acid], the “Delta TM” value came out at 34.3 °C.

For `Cc1cccc2c(-c3cc(F)cc4nn(C)cc34)nn(-c3ccc(N4C[C@@H]5C[C@H]4C[C@H]5C(=O)O)nc3)c12` (single isomer, unassigned) [Example 38-1], the “Delta TM” value turned out to be 24.8 °C.

With `CC(=O)N1CCN(c2ccc(-n3nc(-c4cc(F)cc5nn(C)cc45)c4cccc(C)c43)cn2)CC1` [Example 40, 1-[4-(5-{6″-fluoro-2″,7-dimethyl-1H,2″H-[3,4″-biindazol]-1-yl}pyridin-2-yl)piperazin-1-yl]ethan-1-one], the “Delta TM” value worked out at 17.8 °C.

With `Cc1cccc2c(-c3cccc4nn(C)c(F)c34)nn(-c3ccc(N4CC5CCC4CC5C(=O)O)nc3)c12` (single isomer, unassigned) [Example 20-2, 2-(5-{3'-fluoro-2',7-dimethyl-1H,2'H-[3,4'-biindazol]-1-yl}pyridin-2-yl)-2-azabicyclo[2.2.2]octane-5-carboxylic acid], the “Delta TM” value worked out at 22.6 °C.

`Cc1cccc2c(-c3cc(F)cc4nn(C)cc34)nn(-c3ccc(N4CC[C@@H](CC(=O)O)C4)nc3)c12` [Example 35, 2-[(3S)-1-(5-{6″-fluoro-2″,7-dimethyl-1H,2″H-[3,4″-biindazol]-1-yl}pyridin-2-yl)pyrrolidin-3-yl]acetic acid]: the “Delta TM” value was 22.5 °C.

In the case of `Cc1cccc2c(-c3c(F)ccc4nn(C)cc34)nn(-c3ccc(N4CCOC(CC(=O)O)C4)nc3)c12` [Example 26-2, 2-[(2S)-4-(5-{5″-fluoro-2″,7-dimethyl-1H,2″H-[3,4″-biindazol]-1-yl}pyridin-2-yl)morpholin-2-yl]acetic acid], the “Delta TM” value was 32.0 °C.

For `Cc1c(F)ccc2c(-c3c(F)cc(F)c4nn(C)cc34)nn(-c3ccc(N4C[C@@H]5[C@H](C4)[C@H]5C(=O)O)nc3)c12` [Example 69, (1R,5S,6S)-3-(5-{5″,6,7″-trifluoro-2″,7-dimethyl-1H,2″H-[3,4″-biindazol]-1-yl}pyridin-2-yl)-3-azabicyclo[3.1.0]hexane-6-carboxylic acid], the “Delta TM” value worked out at 35.0 °C.

For `CC(=O)N1CCN(c2ccc(-n3nc(-c4c(F)cc(F)c5nn(C)cc45)c4ccc(F)c(C)c43)cn2)CC1` [Example 71, 1-[4-(5-{5″,6,7″-trifluoro-2″,7-dimethyl-1H,2″H-[3,4″-biindazol]-1-yl}pyridin-2-yl)piperazin-1-yl]ethan-1-one], the “Delta TM” value came out at 31.3 °C.

For `Cc1cccc2c(-c3c(F)cc(F)c4nn(C)cc34)nn(-c3ccc(N4CC5CCC4CC5C(=O)O)nc3)c12` (single isomer, unassigned) [Example 48-1], the “Delta TM” value turned out to be 23.9 °C.

Regarding `Cc1cccc2c(-c3cc(F)cc4nn(C)cc34)nn(-c3ccc(N4CC[C@H](CC(=O)O)C4)nc3)c12` [Example 36, 2-[(3R)-1-(5-{6″-fluoro-2″,7-dimethyl-1H,2″H-[3,4″-biindazol]-1-yl}pyridin-2-yl)pyrrolidin-3-yl]acetic acid], the “Delta TM” value worked out at 24.0 °C.

Turning to `Cc1cccc2c(-c3c(F)ccc4nn(C)cc34)nn(-c3ccc(N4CC5CCC4CC5C(=O)O)nc3)c12` (single isomer, unassigned) [Example 28-2], the “Delta TM” value amounted to 25.9 °C.

`Cc1cccc2c(-c3ccc(F)c4nn(C)c(F)c34)nn(-c3ccc(N4C[C@H]5C[C@@H]4C[C@@H]5C(=O)O)nc3)c12` (single isomer, unassigned) [Example 56-2]: the “Delta TM” value turned out to be 33.0 °C.

With `Cc1cccc2c(-c3ccc(F)c4nn(C)c(F)c34)nn(-c3ccc(N4C[C@@H]5C[C@H]4C[C@H]5C(=O)O)nc3)c12` (single isomer, unassigned) [Example 56-1], the “Delta TM” value was 33.0 °C.

Take `Cc1cccc2c(-c3c(F)ccc4nn(C)cc34)nn(-c3ccc(N4CCOC(CC(=O)O)C4)nc3)c12` [Example 26-1, 2-[(2R)-4-(5-{5″-fluoro-2″,7-dimethyl-1H,2″H-[3,4″-biindazol]-1-yl}pyridin-2-yl)morpholin-2-yl]acetic acid]: the “Delta TM” value turned out to be 31.0 °C.

`Cc1cccc2c(-c3cc(F)cc4nn(C)cc34)nn(-c3ccc(N4CCO[C@@H](CC(=O)O)C4)nc3)c12` [Example 37-2, 2-[(2S)-4-(5-{6″-fluoro-2″,7-dimethyl-1H,2″H-[3,4″-biindazol]-1-yl}pyridin-2-yl)morpholin-2-yl]acetic acid]: the “Delta TM” value was 18.0 °C.

As for `CC(=O)N1C[C@@H]2C[C@H]1CN2c1ccc(-n2nc(-c3c(F)cc(F)c4nn(C)cc34)c3cccc(C)c32)cn1` [Example 50, 1-[(1S,4S)-5-(5-{5″,7″-difluoro-2″,7-dimethyl-1H,2″H-[3,4″-biindazol]-1-yl}pyridin-2-yl)-2,5-diazabicyclo[2.2.1]heptan-2-yl]ethan-1-one], the “Delta TM” value amounted to 25.0 °C.

As to `CC(=O)N1CC2CCC1CN2c1ccc(-n2nc(-c3cc(F)cc4nn(C)cc34)c3cccc(C)c32)cn1` (stereo not drawn) [Example 43, 1-[5-(5-{6″-fluoro-2″,7-dimethyl-1H,2″H-[3,4″-biindazol]-1-yl}pyridin-2-yl)-2,5-diazabicyclo[2.2.2]octan-2-yl]ethan-1-one], the “Delta TM” value stood at 16.0 °C.

For the compound `Cc1cccc2c(-c3cc(F)cc4nn(C)cc34)nn(-c3ccc(N4CCO[C@H](CC(=O)O)C4)nc3)c12` [Example 37-1, 2-[(2R)-4-(5-{6″-fluoro-2″,7-dimethyl-1H,2″H-[3,4″-biindazol]-1-yl}pyridin-2-yl)morpholin-2-yl]acetic acid], the “Delta TM” value is 16.0 °C.

Regarding `CC(=O)N1C[C@H]2C[C@@H]1CN2c1ccc(-n2nc(-c3cc(F)cc4nn(C)cc34)c3cccc(C)c32)cn1` [Example 42, 1-[(1R,4R)-5-(5-{6″-fluoro-2″,7-dimethyl-1H,2″H-[3,4″-biindazol]-1-yl}pyridin-2-yl)-2,5-diazabicyclo[2.2.1]heptan-2-yl]ethan-1-one], the “Delta TM” value came to 15.8 °C.

Source of the values: US20240174641A1, “HETEROCYCLIC COMPOUNDS CAPABLE OF […]” (Boehringer Ingelheim International GmbH, priority 2022, published 2024).
